Measured values published in a melting point compilation (Tetko et al.; mined from patent text by program, amines drawn as free bases though some values may be those of a salt).

Compound | melting point
CS(=O)(=O)c1ccc(-c2sc(-c3ccccc3)nc2-c2ccc(F)cc2)cc1 | 188 to 189 °C
CNC(=O)N1N=C(c2ccc([N+](=O)[O-])c(C)c2)c2cc3c(cc2CC1C)OCO3 (configuration not stated) | 221 to 229 °C
Cc1cccc2c1C(=O)/C(=C(\N)c1ccccc1)S2 | 198 to 200 °C
Cn1nc(C(=O)C(=O)c2ccccc2)ccc1=O | 89 to 92 °C
c1ccc(C(OC2CCN(CCCCNc3ccc4ncnn4n3)CC2)c2ccccc2)cc1 | 102 to 104 °C
Cc1ccc(C)n1N1C(=O)c2ccccc2C1=O | 182 to 184 °C
O=c1[nH]c2cc(Cl)ccc2n1C1CCN(Cc2cccc(-c3ccc(Cl)cc3)n2)CC1 | 203 to 205 °C
CCc1cc([N+](=O)[O-])c(Cl)c([N+](=O)[O-])c1COC | 81 to 82 °C
O=C1OC(CCOc2ccc3oc4ccccc4c3c2)C(O)=C1O (configuration not stated) | 191 to 192 °C
CCOC(=O)c1[nH]cnc1Cc1ccccc1 | 149 °C
N#CN1CCN(c2n[nH]c3ccccc23)CC1 | 120 to 122 °C
N[C@@H](CC1CCCCC1)[C@@H](O)[C@@H]1CCCS1 | 58 to 59 °C
O=C1c2ccccc2C(=O)N1CCCc1cn(C(c2ccccc2)(c2ccccc2)c2ccccc2)cn1 | 211 to 214 °C
CC(=O)N(O)C(CS(=O)(=O)c1ccc(-c2cccc(CNC(=O)c3nc4ccccc4c(=O)[nH]3)c2)cc1)C(C)C (configuration not stated) | 167 to 169 °C
CCCn1nc(C(C)C)cc1Cc1ccc(-c2ccccc2-c2nnn[nH]2)cc1 | 147 to 149 °C
c1ccc(Cn2c(-c3ccc4c(c3)OCO4)nc3ccccc32)cc1 | 143 to 145 °C
O=S1(=O)CCSC(Oc2cccc(Cl)c2)=N1 | 170 °C
CNc1cc(C=O)cc(S(N)(=O)=O)c1Oc1ccccc1 | 166 to 167 °C
Cc1ccc(C)c(OCCO)c1 | 45 to 48 °C
COc1ccc2c(c1)C(=O)c1c-2n(CCCCl)c(=O)c2ccccc12 | 195 to 198 °C
C#CCn1c(=O)c2cc(Cl)ccc2c2ccc(Cl)cc21 | 248 to 250 °C
CC(=NOCCOc1ccc(CC2SC(=O)NC2=O)cc1)c1ccc(-c2ccccc2)nc1 (configuration not stated) | 186 to 187 °C
CCN(CC)CCC(=O)Nc1ccc2c(=O)c3ccc(NC(=O)CCN(CC)CC)cc3[nH]c2c1 | > 320 °C
O=C(/C=C\[C@H]1CC1(c1ccccc1)c1ccccc1)NCCCCc1cccnc1 | 115 to 116 °C

Compound | melting point
CCOC(=O)c1c[nH]c2ccc(Cc3ccccc3)cc2c1=O | 265 to 270 °C
CN(CCCCCCCC(=O)O)c1cnc(-c2ccccc2)c(-c2ccccc2)n1 | 116 to 117 °C
CN(C)CCCNCc1ccc(-c2cc3ncnc(Nc4ccc5[nH]ccc5c4)c3s2)cc1 | 148 to 160 °C
O=C(O)c1ccc2c(c1)Sc1ccccc1CC2O (configuration not stated) | 202 to 204 °C
COc1ccc2nccc(NC(=O)N3CCN(CCc4ccc5c(c4)NC(=O)CS5)CC3)c2n1 | 248 to 250 °C
CC(C)(O)C(C)(O)Cc1ccccc1 (configuration not stated) | 72 to 74 °C
Cc1cc2c(-c3ccccc3)noc2c2c1OC(C(=O)O)C2 (configuration not stated) | 210 to 213 °C
CN(C)C(=S)Sc1sn(CCc2ccccc2)c(=O)c1Cl | 125 to 127 °C
Nc1ncnc2c1ncn2[C@H]1C=C[C@@H](O)C1 (racemic) | 180 °C
Clc1cccnc1-c1cc(OCCc2ccccn2)c2[nH]nc(Nc3nccs3)c2c1 | 185 to 187 °C
CCCCCCCCCCCCCCCCCCNC(=O)C(N)=O | 169 °C
CCCNC(=O)CCc1ccc2ccn(Cc3ccc(C(=O)NS(=O)(=O)c4ccccc4C)cc3OC)c2c1 | 110 °C
O=C(O)c1ccc(CNC(=O)[C@@H]2Cc3ccccc3N2S(=O)(=O)c2ccc(I)cc2)cc1 | 110 to 120 °C
C=C(Cl)Cn1c(C)c(C)c2cnnc(OCc3ccccc3)c21 | 88 to 90 °C
CNC(=O)ON=C1SCS(=O)CS1 (configuration not stated) | 175 to 177 °C
OCCOc1cccc2cnccc12 | 64 to 67 °C
CCSc1ccc(Cl)c(C#N)n1 | 46 to 48 °C
CCn1cc(C(=O)NCc2ccc(Cl)cc2)c(=O)c2cc(CCl)oc21 | 192 to 193 °C
O=C(O)c1[nH]c(=O)c2ccc(Cl)cc2c1-c1ccccc1 | > 300 °C
CCc1nc2c(N)nc3ccccc3c2o1 | 175 to 178 °C
CN(C)C(=O)c1cccn1N1C(=O)c2ccccc2C1=O | 153 to 155 °C
CN1C(=O)Cc2c(Cl)cc(Cl)cc21 | 144 to 145 °C
CN(C)C=CC(=O)c1cc(Cl)ccc1Cl | 83 to 85 °C
CCCCNc1cc(C(=O)O)cc(S(N)(=O)=O)c1Oc1ccc(S(N)(=O)=O)cc1 | 265 °C

Further lines, results first:

melting point | Compound
141 to 142 °C | COC(=O)c1cc(-n2c(-c3ccccc3)cc3c2CCCC3)ccc1O
125 to 126 °C | COC(=O)c1nn(C)nc1C(=O)O
85 to 86 °C | COc1ccc(-c2ccc(C(F)(F)CC(CC(O)CSc3ccccc3)C(=O)O)cc2)cc1 (configuration not stated)
285 to 286 °C | Cc1nc2c(c3c1[nH]c1cc(F)ccc13)C(=O)CC(C(C)C)C2 (configuration not stated)
245 to 246 °C | Cn1cc(-c2ccc3nc(NC(=O)c4ccc(C(C)(C)C)cc4)cn3n2)cn1
138 to 140 °C | CC=CCOc1ccc(C)c2c1C(=O)C(C)C2c1ccccc1 (configuration not stated)
136 to 137 °C | CC1=CC(OC(=O)c2ccc(N)c(N)c2)C(O)C(C)(C)CC1=O (configuration not stated)
125 to 127 °C | CCN(CC1OCCO1)c1c([N+](=O)[O-])cc(S(C)(=O)=O)cc1[N+](=O)[O-]
> 250 °C | COc1ccc(CNc2nc(N3CCC(C(=O)O)CC3)nc3sc(Cl)cc23)cc1Cl
98 to 100 °C | COc1cc(Br)c(I)cc1OC
181 to 185 °C | CC(C)(C(=O)O)n1nc2ccc(NCCCN3CCC(OC(c4ccccc4)c4ccccc4)CC3)nn2c1=O
192 °C | COc1ccc(NC(=S)c2ccc(N(C)C)cc2)cc1
136 to 138 °C | CCOc1c(C)c(N2CCN(c3ccc(F)cc3)CC2)c(C)c2c1OC(C)C2 (configuration not stated)
198 °C | COc1ccc(C(=O)c2cc(-c3ccc(NC(C)=O)cc3)c(N3CCOCC3)s2)cc1
130 °C | CC(C)(C)OC(=O)Nc1ccc(NC(=O)OC(C)(C)C)c(Br)c1
48 to 52 °C | COCCCN1CC(=O)c2cc(Cl)sc2S1(=O)=O
100 to 101 °C | CCOc1c(C(=O)OCC(C)(C)C(O)C(C)(C)C)oc2ccc(OC)cc12 (configuration not stated)
43 to 45 °C | CC(O)c1cnc(C(F)(F)F)nc1 (configuration not stated)
152 °C | CN1CCCc2cc(OC(=O)Nc3ccc(Cl)c(C(F)(F)F)c3)ccc21
58 to 69 °C | CCC1(C)CC(O)CC(C)(C)N1OC(C)c1ccccc1 (configuration not stated)
145 to 147 °C | CC(C)CCS(=O)(=O)NC(=O)/C=C/c1cc(C2CC2)nn1Cc1ccc(C(F)(F)F)cc1Cl
281 to 283 °C | CN1CCN(c2c(F)c(N)c3c(=O)c(C(=O)O)cn(C4CC4)c3c2F)CCC1=O
144 to 147 °C | CSc1nc(-c2cc(C(=O)N(C)C)ccc2C)c2c(n1)N(c1c(F)cccc1F)C(=O)NC2
146 °C | COc1cc2c(cc1OC)CN(CCCCc1ccc(NC(=O)c3nc4ccccc4nc3C)cc1)CC2
129 to 130 °C | COC(=O)CCc1ccc(C(=C2CC(C)(C)CC(C)(C)C2)c2ccc(O)cc2)cc1
52 to 55 °C | CN(C)CCCOc1cc(F)c(-c2c(Cl)nc3nccn3c2NCC(F)(F)F)c(F)c1
110 to 112 °C | COC(=O)C(=NO)c1cc(Cl)nc(NC=O)n1

melting point | Compound
55 to 60 °C | COC1CC(NC(=O)C(F)(F)F)C(OC)C(C)O1 (configuration not stated)
203 °C | COC(=O)C1=C(C)NC(C)=C(S(=O)(=O)c2ccccc2)C1c1ccccc1[N+](=O)[O-] (configuration not stated)
112 °C | N#Cc1ccc(NC2CCN(Cc3cccc(C(F)(F)F)c3)CC2)nc1
116 to 117 °C | CCOC(=O)C1(C(=O)OCC)Oc2c(ccc(OC)c2Cl)C1O (configuration not stated)
134 to 136 °C | COc1cc2c(c3c1OC(C)(C)C3)C(c1cccc(NS(=O)(=O)N(C)C)c1)=NC(C)(C)C2
45 to 47 °C | CC(=O)Oc1ccc(Cl)nc1
193 to 195 °C | CC(=O)N(C)S(=O)(=O)c1cc(-n2c(=O)cc(C(F)(F)F)n(C)c2=O)ccc1Cl
80 to 82 °C | Cc1ccc(C(F)C(F)(F)S(=O)(=O)c2ccccc2)cc1 (configuration not stated)
209 to 211 °C | COc1ccc(-c2c(C3CCN(C)CC3)[nH]c(=O)c3ccccc23)cc1
111 to 117 °C | COc1cc(C(C)C)c(Oc2cnc(N[C@H](C)CO)nc2N)cc1Cl
190 to 192 °C | CNc1nc(Nc2ccccc2C)c2cccc(OC)c2n1
68 °C | CCCCCCCCC(=O)NC1CC(C)(C)N(CC#N)C(C)(C)C1
98 to 99 °C | COc1ccc(C(=O)Nc2cc(NC(=O)c3cccc(N(C)C)c3)ccc2Cl)cc1OC
90 to 96 °C | O=C1CCc2c(Cl)cc(Cl)c(OS(=O)(=O)C(F)(F)F)c21
200 to 202 °C | Nc1ccc(NC(=O)Nc2cccc(C(F)(F)F)c2)c(O)c1
138 to 141 °C | CCOC(=O)C(=O)Nc1ccc(C(=O)NC2CCN(C3CCCCC3)C2)cc1 (configuration not stated)
211 to 214 °C | CC(=Cc1ccc(Oc2ccc(C)nc2)cc1)C(=O)O
226 to 228 °C | NC(=O)NN=Cc1ccc(OC2C3CC4CC(C3)CC2C4)cc1 (configuration not stated)
237 to 238 °C | CCC12CCC(=O)C=C1c1c(cc(OCC(=O)O)c(Cl)c1Cl)C2 (configuration not stated)
64 to 65 °C | CO/C=C(/C(=O)OC)c1ccccc1COc1cccc(Br)n1
109 to 110 °C | COc1cc(Cl)c(N)cc1C(=O)NCC1CCCO1 (configuration not stated)
136 to 137 °C | CCOC(=O)C1=C(C)NC(C=NO)=C(C(=O)OCC)C1c1ccccc1Cl (configuration not stated)
117 to 121 °C | Cc1cccc(C(=O)NO)c1N(C)S(=O)(=O)c1ccc(OCCCCNC(=O)c2ccc3c(c2)OCO3)cc1
134 to 136 °C | COC(=O)Cc1ccc(C(=O)O)cc1
71 to 72 °C | CCOC(=O)C(=CN(C)C)C(=O)C(Cl)Cl
140 to 143 °C | CC(=NO)C(=O)c1ccc(NS(C)(=O)=O)c(Sc2ccc(F)cc2F)c1
110 to 112 °C | Cc1cnc(C(=O)NCCO[N+](=O)[O-])s1
